Results reported in patent publication US12110279B2, “Triazolones, tetrazolones, and imidazolones, or their salts, and pharmaceutical compositions comprising the same” (Yuhan Corporation, priority 2021, dated 2024).
Structures can show the parent of a compound that is named as a salt. Where two headings read alike, the source gives them in different places.

Key:
Type in all cases: biochemical
recombinant human VAP-1 = molecular target: T1, recombinant human VAP-1 (Homo sapiens, UniProt Q16853); assay: Amplex Red HRP-coupled amine oxidase activity evaluation, recombinant human VAP-1; details: substrate 1 mM benzylamine; 30 min preincubation at 37° C.; read-out: Inhibitory Activity (IC50, nM) human VAP-1
T1 construct: purchased R&D systems
T1 sequence (Q16853 1-763): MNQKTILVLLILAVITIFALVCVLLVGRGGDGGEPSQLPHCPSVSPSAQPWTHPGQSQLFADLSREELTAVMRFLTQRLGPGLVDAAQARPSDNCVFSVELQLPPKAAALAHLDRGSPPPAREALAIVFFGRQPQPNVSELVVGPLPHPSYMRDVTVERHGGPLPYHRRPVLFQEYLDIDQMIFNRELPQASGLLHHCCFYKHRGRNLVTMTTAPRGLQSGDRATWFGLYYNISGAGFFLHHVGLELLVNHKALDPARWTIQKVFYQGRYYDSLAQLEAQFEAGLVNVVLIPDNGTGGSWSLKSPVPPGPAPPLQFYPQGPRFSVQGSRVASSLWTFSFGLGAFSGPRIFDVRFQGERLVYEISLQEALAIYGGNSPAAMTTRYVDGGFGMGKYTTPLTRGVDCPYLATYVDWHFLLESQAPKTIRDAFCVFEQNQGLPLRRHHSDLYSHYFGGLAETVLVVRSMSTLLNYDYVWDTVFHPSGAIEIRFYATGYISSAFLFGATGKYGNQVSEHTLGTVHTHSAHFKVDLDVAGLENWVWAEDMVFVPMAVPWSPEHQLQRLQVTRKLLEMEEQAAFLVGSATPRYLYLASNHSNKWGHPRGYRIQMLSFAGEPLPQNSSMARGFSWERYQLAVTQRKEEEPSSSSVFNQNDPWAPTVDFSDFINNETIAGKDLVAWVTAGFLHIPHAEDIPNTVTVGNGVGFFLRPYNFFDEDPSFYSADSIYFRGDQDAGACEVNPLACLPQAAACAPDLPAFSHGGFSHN
Procedure, shortened: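 Steps: 8-point 1:3 compound dilutions (final DMSO <1%); 30 min at 37° C with human VAP-1 in 50 mM NaPi pH 7.4; addition of a mix holding 200 uM Amplex Red, 1 mM benzylamine and 1 U/mL HRP; kinetic fluorescence over 1-2 h. Four-parameter logistic IC50.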

[1] = molecular target: T2, recombinant human MAO-A (monoamine oxidase-A) (Homo sapiens, UniProt P21397); assay: Amplex Red HRP-coupled amine oxidase activity evaluation, recombinant human MAO-A; details: substrate 0.5 mM tyramine; read-out: Inhibitory Activity (IC50, nM) MAO-A
T2 construct: purchased Sigma-Aldrich
T2 sequence (P21397 1-527): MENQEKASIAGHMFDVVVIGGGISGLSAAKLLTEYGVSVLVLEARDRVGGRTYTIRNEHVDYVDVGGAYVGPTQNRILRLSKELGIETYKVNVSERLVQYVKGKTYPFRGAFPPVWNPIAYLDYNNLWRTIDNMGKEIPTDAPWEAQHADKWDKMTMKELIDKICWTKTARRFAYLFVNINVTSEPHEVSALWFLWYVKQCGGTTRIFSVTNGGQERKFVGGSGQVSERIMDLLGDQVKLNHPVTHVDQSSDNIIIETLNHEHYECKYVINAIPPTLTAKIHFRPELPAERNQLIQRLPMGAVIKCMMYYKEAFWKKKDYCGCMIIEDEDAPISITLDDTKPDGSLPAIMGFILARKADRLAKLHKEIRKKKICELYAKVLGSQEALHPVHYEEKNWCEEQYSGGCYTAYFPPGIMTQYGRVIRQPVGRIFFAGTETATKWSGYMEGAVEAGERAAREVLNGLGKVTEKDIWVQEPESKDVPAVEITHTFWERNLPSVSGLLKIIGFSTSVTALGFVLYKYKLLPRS

[2] = molecular target: T3, recombinant human MAO-B (monoamine oxidase-B) (Homo sapiens, UniProt P27338); assay: Amplex Red HRP-coupled amine oxidase activity evaluation, recombinant human MAO-B; details: substrate 1 mM benzylamine; read-out: Inhibitory Activity (IC50, nM) MAO-B
T3 construct: purchased Sigma-Aldrich
T3 sequence (P27338 1-520): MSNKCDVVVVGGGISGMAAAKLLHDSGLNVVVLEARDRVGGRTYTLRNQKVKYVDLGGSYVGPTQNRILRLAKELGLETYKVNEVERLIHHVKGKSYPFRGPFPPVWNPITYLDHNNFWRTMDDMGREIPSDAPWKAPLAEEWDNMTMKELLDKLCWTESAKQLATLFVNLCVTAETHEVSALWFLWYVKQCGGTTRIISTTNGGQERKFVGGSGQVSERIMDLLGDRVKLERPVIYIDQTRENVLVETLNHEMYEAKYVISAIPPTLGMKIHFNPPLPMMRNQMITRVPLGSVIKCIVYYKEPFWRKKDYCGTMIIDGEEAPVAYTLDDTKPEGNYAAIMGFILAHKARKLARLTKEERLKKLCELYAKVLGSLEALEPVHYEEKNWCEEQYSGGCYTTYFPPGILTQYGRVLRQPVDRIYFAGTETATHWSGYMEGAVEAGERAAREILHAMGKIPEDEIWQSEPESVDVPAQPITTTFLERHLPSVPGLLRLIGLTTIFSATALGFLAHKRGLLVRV

[3] = molecular target: T4, recombinant human DAO (diamine oxidase) (Homo sapiens, UniProt P19801); assay: Amplex Red HRP-coupled amine oxidase activity evaluation, recombinant human DAO
T4 construct: purchased R&D systems
T4 sequence (P19801 20-751): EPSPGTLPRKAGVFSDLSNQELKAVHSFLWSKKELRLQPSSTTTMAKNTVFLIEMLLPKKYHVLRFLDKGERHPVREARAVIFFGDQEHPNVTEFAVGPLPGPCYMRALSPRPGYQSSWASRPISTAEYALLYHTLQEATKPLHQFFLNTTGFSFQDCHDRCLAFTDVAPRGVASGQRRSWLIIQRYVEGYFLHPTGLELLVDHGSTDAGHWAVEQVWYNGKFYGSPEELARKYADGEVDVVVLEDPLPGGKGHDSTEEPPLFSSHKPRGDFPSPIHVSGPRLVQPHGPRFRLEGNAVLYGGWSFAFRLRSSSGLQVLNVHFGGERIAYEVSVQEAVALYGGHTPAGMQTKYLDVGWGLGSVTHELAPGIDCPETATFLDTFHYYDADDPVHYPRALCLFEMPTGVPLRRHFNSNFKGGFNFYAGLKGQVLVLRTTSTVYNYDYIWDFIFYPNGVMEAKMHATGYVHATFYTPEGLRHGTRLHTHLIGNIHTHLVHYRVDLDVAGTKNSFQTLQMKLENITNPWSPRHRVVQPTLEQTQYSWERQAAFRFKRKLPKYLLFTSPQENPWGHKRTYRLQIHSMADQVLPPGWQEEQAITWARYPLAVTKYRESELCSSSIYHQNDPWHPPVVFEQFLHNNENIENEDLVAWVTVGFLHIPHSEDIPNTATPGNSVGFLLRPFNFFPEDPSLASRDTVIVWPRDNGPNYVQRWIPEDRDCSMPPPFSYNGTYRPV

[4] = substrate 1 mM putrescine, read-out: Inhibitory Activity (IC50, nM) DAO

SMILES | IC50 (recombinant human VAP-1) [nM] | IC50 [1] [nM] | IC50 [2] [nM] | IC50 [3, 4] [nM] | IC50 [3] [nM]
CCn1cc(-c2ccc(-n3nnn(CC(CN)=C(F)F)c3=O)cc2)ccc1=O [Example 18, 5-[4-[4-[2-(aminomethyl)-3,3-difluoro-allyl]-5-oxo-tetrazol-1-yl]phenyl]-1-ethyl-pyridin-2-one trifluoroacetate] | 0.2 | > 100000 | 78 | > 100000 | –
NCC(Cn1nnn(-c2cc(-c3ccc4c(c3)OCO4)cs2)c1=O)=C(F)F [Example 39, 1-[2-(aminomethyl)-3,3-difluoro-allyl]-4-[4-(1,3-benzodioxol-5-yl)-2-thienyl]tetrazol-5-one trifluoroacetate] | 0.6 | 26200 | 21 | 88 | –
CCn1cc(-c2ccc(Cn3c(C)nn(CC(CN)=C(F)F)c3=O)s2)ccc1=O [Example 4, 5-[5-[[1-[2-(aminomethyl)-3,3-difluoro-allyl]-3-methyl-5-oxo-1,2,4-triazol-4-yl]methyl]-2-thienyl]-1-ethyl-pyridin-2-one trifluoroacetate] | 1.5 | > 100000 | > 100000 | > 100000 | –
CCn1cc(-c2ccc(Cn3nnn(CC(CN)=C(F)F)c3=O)s2)cn1 [Example 47, 1-[2-(aminomethyl)-3,3-difluoro-allyl]-4-[[5-(1-ethylpyrazol-4-yl)-2-thienyl]methyl]tetrazol-5-one trifluoroacetate] | 0.5 | > 100000 | 15100 | 8170 | –
NCC(Cn1nnn(Cc2cccc(-c3ccc(N4CCNCC4)cc3)c2)c1=O)=C(F)F [Example 28, 1-[2-(aminomethyl)-3,3-difluoro-allyl]-4-[[3-(4-piperazin-1-ylphenyl)phenyl]methyl]tetrazol-5-one di-trifluoroacetate] | 1.8 | 33000 | 35800 | 5160 | –
CCn1cc(-c2csc(-n3nnn(CC(CN)=C(F)F)c3=O)c2)cn1 [Example 42, 1-[2-(aminomethyl)-3,3-difluoro-allyl]-4-[4-(1-ethylpyrazol-4-yl)-2-thienyl]tetrazol-5-one trifluoroacetate] | 0.4 | > 100000 | 228 | 0.6 | –
CN(C)c1ccc(-c2cccc(Cn3nnn(CC(CN)=C(F)F)c3=O)c2)cn1 [Example 29, 1-[2-(aminomethyl)-3,3-difluoro-allyl]-4-[[3-[6-(dimethylamino)-3-pyridyl]phenyl]methyl]tetrazol-5-one trifluoroacetate] | 0.7 | 80100 | 14300 | 159 | –
NCC(Cn1nnn(-c2ccc(-c3ccc4c(c3)OCO4)cc2)c1=O)=C(F)F [Example 19, 1-[2-(aminomethyl)-3,3-difluoro-allyl]-4-[4-(1,3-benzodioxol-5-yl)phenyl]tetrazol-5-one trifluoroacetate] | 0.5 | > 100000 | 8.8 | 4890 | –
CCn1cc(-c2csc(-n3nnn(CC(CN)=C(F)F)c3=O)c2)ccc1=O [Example 37, 5-[5-[4-[2-(aminomethyl)-3,3-difluoro-allyl]-5-oxo-tetrazol-1-yl]-3-thienyl]-1-ethyl-pyridin-2-one trifluoroacetate] | 0.3 | > 100000 | 3450 | 25300 | –

Further lines, results first:

IC50 (recombinant human VAP-1) [nM] | IC50 [1] [nM] | IC50 [2] [nM] | IC50 [3, 4] [nM] | IC50 [3] [nM] | SMILES
0.9 | > 100000 | > 100000 | – | 10 | CCn1cc(-c2cccc(-n3nnn(CC(CN)=C(F)F)c3=O)c2)ccc1=O [Example 12, 5-[3-[4-[2-(aminomethyl)-3,3-difluoro-allyl]-5-oxo-tetrazol-1-yl]phenyl]-1-ethyl-pyridin-2-one di-trifluoroacetate]
0.3 | 81400 | 3990 | 122 | – | CN1C(=O)CCc2cc(-c3cccc(Cn4nnn(CC(CN)=C(F)F)c4=O)c3)ccc21 [Example 33, 6-[3-[[4-[2-(aminomethyl)-3,3-difluoro-allyl]-5-oxo-tetrazol-1-yl]methyl]phenyl]-1-methyl-3,4-dihydroquinolin-2-one trifluoroacetate]
1.4 | > 100000 | 2470 | – | 12 | CN1C(=O)CCc2cc(-c3cccc(-n4nnn(CC(CN)=C(F)F)c4=O)c3)ccc21 [Example 14, 6-[3-[4-[2-(aminomethyl)-3,3-difluoro-allyl]-5-oxo-tetrazol-1-yl]phenyl]-1-methyl-3,4-dihydroquinolin-2-one trifluoroacetate]
1 | > 100000 | > 100000 | > 100000 | – | Cc1nn(CC(CN)=C(F)F)c(=O)n1Cc1ccc(-c2ccc3c(c2)CCC(=O)N3C)s1 [Example 8, 6-[5-[[1-[2-(aminomethyl)-3,3-difluoro-allyl]-3-methyl-5-oxo-1,2,4-triazol-4-yl]methyl]-2-thienyl]-1-methyl-3,4-dihydroquinolin-2-one trifluoroacetate]
19 | > 100000 | > 100000 | – | 4370 | Cc1ccc(-c2ccc3c(c2)CCC(=O)N3C)nc1-n1nnn(CC(CN)=C(F)F)c1=O [Example 26, 6-[6-[4-[2-(aminomethyl)-3,3-difluoro-allyl]-5-oxo-tetrazol-1-yl]-5-methyl-2-pyridyl]-1-methyl-3,4-dihydroquinolin-2-one trifluoroacetate]
1 | > 100000 | 43500 | – | 113 | CCn1cc(-c2cccc(-n3nnn(CC(CN)=C(F)F)c3=O)c2)cn1 [Example 15, 1-[2-(aminomethyl)-3,3-difluoro-allyl]-4-[3-(1-ethylpyrazol-4-yl)phenyl]tetrazol-5-one trifluoroacetate]
